In patent US20250059205A1, “Heterocyclic Compounds and Methods of Use” (AMGEN INC., priority 2021, published 2025):
pIC50: −log10 of the molar value. Like-named read-outs stand apart in the source and are kept apart here.

Key:
[1] = system: Phosphorylation of ERK1/2 in AsPC-1 cells; test: Phospho-ERK1/2 MSD Assay (AsPC-1 cells); type: cell-based; details: 2 hours treatment, read-out: p-ERK (AsPC-1 cells) IC50
Outline: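 Read-out: MSD electrochemiluminescent detection of phosphorylated ERK1/2 in whole-cell lysates, fitted to a 4-parameter logistic curve for IC50. Prior to lysis, AsPC-1 cells (25,000 per well) received a 2 h compound dose-response at 37 °C.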

[2] = biological target: His-tagged KRAS G12D protein (Homo sapiens, UniProt P01116, G12D); test: KRAS G12D TR-FRET Assay; type: binding
[3] = biological target: GDP-bound KRAS protein (aa 1-169), containing both G12D and C118A amino acid substitutions (Homo sapiens, UniProt P01116, C118A/G12D); test: KRAS G12D Coupled Nucleotide Exchange Assay; type: biochemical; details: 2 h compound pre-incubation
Description: Following compound pre-incubation, purified SOS protein (aa 564-1049) and GTP (Roche 10106399001) were added to the assay wells and incubated for an additional 30 min. […] The assay plates were then read on a PerkinElmer EnVision Multilabel Reader, using AlphaScreen® technology, and data were analyzed using a 4-parameter logistic model to calculate IC50 values.

[4] = system: Phosphorylation of ERK1/2 in A-427 cells; test: Phospho-ERK1/2 MSD Assay (A-427 cells); type: cell-based; details: 2 h treatment, read-out: p-ERK (A427 cells) IC50
Outline: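 ERK1/2 phosphorylation measured by Meso Scale whole-cell lysate assay after A-427 cells were exposed to a titration of compound for 2 h at 37 °C.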

GDP-bound KRAS protein (aa 1-169), containing both G12D and C118A amino acid substitutions, sequence (P01116 1-169 isoform P01116-2 G12D/C118A): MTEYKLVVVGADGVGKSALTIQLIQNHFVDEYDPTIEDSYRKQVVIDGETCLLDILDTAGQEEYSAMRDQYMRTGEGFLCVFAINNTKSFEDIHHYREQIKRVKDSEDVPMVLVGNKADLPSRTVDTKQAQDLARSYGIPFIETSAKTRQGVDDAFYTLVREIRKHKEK
His-tagged KRAS G12D protein, sequence (P01116 1-188 isoform P01116-2 G12D): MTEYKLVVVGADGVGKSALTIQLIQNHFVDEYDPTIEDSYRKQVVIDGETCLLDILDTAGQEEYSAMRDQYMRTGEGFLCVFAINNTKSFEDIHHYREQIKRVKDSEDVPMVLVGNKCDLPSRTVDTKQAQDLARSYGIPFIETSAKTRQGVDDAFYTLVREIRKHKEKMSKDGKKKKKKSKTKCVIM

Compound | pIC50 ([1]; Homo sapiens, ASPC1, 2 h) | pIC50 [2] | Avg 2 h Coupled Exchange IC50 [3] [nM] | pIC50 ([4]; Homo sapiens, A-427, 2 h) | pIC50 [1] | pIC50 ([3]; read-out: Avg 2 h Coupled Exchange IC50) | pIC50 [4]
N#Cc1cc(O)cc(-c2c(F)cc3c(N4C[C@H]5CC[C@@H](C4)N5)nc(OC[C@@]45CCCN4C[C@H](F)C5)nc3c2F)c1C1CC1 [Example 227, 3-(4-((1R,5S)-3,8-Diazabicyclo[3.2.1]octan-3-yl)-6,8-difluoro-2-(((2R,7aS)-2-fluorotetrahydro-1H-pyrrolizin-7a(5H)-yl)methoxy)quinazolin-7-yl)-2-cyclopropyl-5-hydroxybenzonitrile] | 6.51 | 8.52 | 4 | 7.32 |  |  | 
Nc1cc(Cl)c(C(F)(F)F)c(-c2ccc3c(N4C[C@H]5CC[C@@H](C4)N5)nc(OC[C@@]45CCCN4C[C@H](F)C5)nc3c2F)n1 [Example 228, 6-(4-((1R,5S)-3,8-Diazabicyclo[3.2.1]octan-3-yl)-8-fluoro-2-(((2R,7aS)-2-fluorotetrahydro-1H-pyrrolizin-7a(5H)-yl)methoxy)quinazolin-7-yl)-4-chloro-5-(trifluoromethyl)pyridin-2-amine] | 6.52 | 8.70 | 2 | 7.11 |  |  | 
Cc1cc(N)nc(-c2ccc3c(N4C[C@H]5CC[C@@H](C4)N5)nc(OC[C@@]45CCCN4C[C@H](F)C5)nc3c2F)c1C(F)(F)F [Example 229, 6-(4-((1R,5S)-3,8-Diazabicyclo[3.2.1]octan-3-yl)-8-fluoro-2-(((2R,7aS)-2-fluorotetrahydro-1H-pyrrolizin-7a(5H)-yl)methoxy)quinazolin-7-yl)-4-methyl-5-(trifluoromethyl)pyridin-2-amine] | 6.31 | 8.15 | 4 | 6.65 |  |  | 
CCc1c(F)ccc2cc(O)cc(-c3cc(C)c4c(N5C[C@H]6CC[C@@H](C5)N6)nc(OC[C@@]56CCCN5C[C@H](F)C6)nc4c3F)c12 [Example 230] |  | 8.40 |  |  | 7.17 | 9.00 | 7.48
CCc1c(F)ccc2cc(O)cc(-c3cc(F)c4c(N5C[C@H]6CC[C@@H](C5)N6)nc(OC[C@@]56CCCN5C[C@H](F)C6)nc4c3F)c12 [Example 231, 4-(4-((1R,5S)-3,8-diazabicyclo[3.2.1]octan-3-yl)-5,8-difluoro-2-(((2R,7aS)-2-fluorotetrahydro-1H-pyrrolizin-7a(5H)-yl)methoxy)quinazolin-7-yl)-5-ethyl-6-fluoronaphthalen-2-ol] | 7.17 | 8.40 | 5 | 7.82 |  |  | 
